The numbers were not newly measured in patent USRE38623E1, “Stabilization of ascorbic acid, ascorbic acid derivatives and/or extracts containing ascorbic acid for topical use” (Topix Pharmaceuticals, Inc., priority 1996, dated 2004), which cites them from elsewhere.

Where two headings read alike, the source gives them in different places.

For the molecule `O=C1O[C@H]([C@@H](O)CO)C(O)=C1O` [L-ascorbic acid], the potency after storage (Darr '043 FIG. 1, after seven weeks, starting from 100 percent, L-ascorbic acid concentration of 1 percent) is reported as 70%. The drop in potency result (Darr '043 FIG. 1, seven weeks at room temperature, L-ascorbic concentrations of 3, 5 and 10 percent) is reported as “less than 10%”; the drop in potency result (Darr '043 FIG. 1, seven weeks, L-ascorbic acid concentration of 1 percent) is “approximately 30%”. For the same molecule, the lost potency (Darr '043 FIG. 2, all four samples, eight weeks at room temperature, stored in the dark) is recorded as ≥ 10%.
